# Measured values reported in article PMC8886048, “The Non-phosphorylating Glyceraldehyde-3-Phosphate Dehydrogenase GapN Is a Potential New Drug Target in Streptococcus pyogenes” (Frontiers in Microbiology, 2022).
# T1: S. pyogenes GapN (Streptococcus pyogenes, UniProt Q99Z67)
# T1 sequence (Q99Z67 1-475): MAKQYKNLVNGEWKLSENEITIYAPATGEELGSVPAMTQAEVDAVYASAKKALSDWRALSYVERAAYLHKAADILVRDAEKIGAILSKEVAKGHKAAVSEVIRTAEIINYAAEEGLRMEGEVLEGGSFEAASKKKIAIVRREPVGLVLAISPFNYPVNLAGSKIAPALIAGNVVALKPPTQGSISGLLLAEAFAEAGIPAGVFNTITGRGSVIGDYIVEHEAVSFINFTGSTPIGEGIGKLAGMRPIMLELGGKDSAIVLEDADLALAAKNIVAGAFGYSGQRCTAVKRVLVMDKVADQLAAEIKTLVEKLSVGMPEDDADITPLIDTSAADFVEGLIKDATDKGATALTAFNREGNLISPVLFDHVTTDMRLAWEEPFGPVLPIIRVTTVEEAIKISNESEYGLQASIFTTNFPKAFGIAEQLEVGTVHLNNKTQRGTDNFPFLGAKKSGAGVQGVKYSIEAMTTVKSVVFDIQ
# Tests used:
# [1] = molecular target: T1, S. pyogenes GapN; test: Activity of purified GapN (NADP+ reduction, absorption at 340 nm); type: biochemical, S. pyogenes M49 strain 591
# Method: (§1) Fractions containing pure protein were pooled and dialyzed overnight in PBS or 0.1 M citric acid (pH 6.0) to prepare them for enzymatic assays.
# (§2) For the measurement of activity of purified GapN, the protein concentration was adjusted to 70 μg/ml. The specific GapN activity was measured as described in [Iddar et al. (2003)] with modification of the protocol. […] The reaction was started by adding DL-G3P. […] As controls, the assay was carried out without addition of protein sample and without addition of G3P, respectively. GapN activity was calculated with the Lambert-Beer equation and expressed in units per milligram of total protein (U/mg), where one unit is defined as the formation of 1 μmol NADPH per minute. […] Potential activating or inhibiting effects on GapN activity were tested by adding 25 mM NaCl, 25 mM KCl, 25 mM NH4Cl, 10 mM D-glucose, 10 mM D-fructose, 10 mM sodium pyruvate, 10 mM ATP, 2 mM erythrose 4-phosphate (E4P), 2 mM sedoheptulose 7-phosphate (S7P), 0.4 mM NADH or 0.4 mM NADPH to the assay mixture.
# [2] = tested on: S. mutans GapN; settings: ref Crow and Wittenberger, 1979; cited from earlier work
# Source text: E4P and phosphohydroxypyruvate were also described to inhibit GapN extracted from pea shoots, maize leaf and the green algae Chlamydomonas reinhardtii ([Kelly and Gibbs, 1973]; [Iglesias et al., 1987]). E4P and S7P are produced in the non-oxidative part of the PPP ([Stincone et al., 2015]), which is present in S. pyogenes. Thus, they could play a role in the in vivo regulation of the enzyme. […] ATP is generated during glycolysis, which provides most of the energy in S. pyogenes.
# [3] = molecular target: non-phosphorylating glyceraldehyde-3-phosphate dehydrogenase GapN of S. pyogenes M49 strain 591 (wild type) (S. pyogenes M49 strain 591); test: SEC-MALS; HiLoad 16/600 Superdex 200 pg, room temperature, 1 x PBS pH 7.4, 0.5 ml/min; oligomeric state in solution
# [4] = tested on: S. pyogenes GapN; settings: ref Iddar et al., 2003; cited from earlier work
# Source text: The non-phosphorylating glyceraldehyde-3-phosphate dehydrogenase GapN has been predicted to be an essential enzyme in S. pyogenes M49 based on gene essentiality analyses via transposon mutant libraries ([Le Breton et al., 2015]).
# [5] = substrate: O=CC(O)COP(=O)(O)O; test: purified protein, by the assay type; type: biochemical, S. pyogenes M49 strain 591; settings: other: Strep-tagged GapN; ± standard error printed (0.05 NADP; 0.19 DL-G3P)
# Method: as §1, §2
molecule,measurement,setting,value
"O=C(CO)[C@@H](O)[C@H](O)[C@H](O)[C@H](O)COP(=O)(O)O [S7P, sedoheptulose 7-phosphate]",Effect on specific activity of purified GapN,"[1]; added to standard assay: 25 mM salts, 10 mM sugars/pyruvate, 2 mM S7P, 0.4 mM NADH or NADPH, n = 4, one-way ANOVA",does not inhibit
same,Effect on S. mutans GapN activity,[2],inhibitory effects
non-phosphorylating glyceraldehyde-3-phosphate dehydrogenase GapN of S. pyogenes M49 strain 591 (wild type) (enzyme),stoichiometry N,[3],4
"O=CC(O)COP(=O)(O)O (stereo not drawn) [G3P, glyceraldehyde 3-phosphate]",Km,[4],666 µM
O=C(O)C(=O)COP(=O)(O)O [phosphohydroxypyruvate],Effect on S. mutans GapN activity,[2],inhibitory effects
NADP,Km,[4],385 µM
"O=C[C@H](O)[C@H](O)COP(=O)(O)O [E4P, erythrose 4-phosphate]",Reduction of the activity of purified GapN,"[1]; 2 mM E4P added to standard assay (10 mM NADP+, 2 mM DL-G3P, pH 8.5), n = 4",90%
same,Specific GapN activity relative to standard assay mix,"[1]; in the presence of 2 mM E4P, mean ± SD, n = 4",10.8 ± 1.9%
same,Effect on S. mutans GapN activity,[2],inhibitory effects
Nc1ncnc2c1ncn2[C@@H]1O[C@H](COP(=O)(O)OP(=O)(O)OP(=O)(O)O)[C@@H](O)[C@H]1O [ATP],Reduction of the activity of purified GapN,"[1]; 10 mM ATP added to standard assay (10 mM NADP+, 2 mM DL-G3P, pH 8.5), n = 4",50%
same,Effect on S. mutans GapN activity,[2],inhibited by ATP to some extent
S. pyogenes GapN (Streptococcus pyogenes serotype M1) (protein) MAKQYKNLVNGEWKLSENEITIYAPATGEELGSVPAMTQAEVDAVYASAKKALSDWRALSYVERAAYLHKAADILVRDAEKIGAILSKEVAKGHKAAVSEVIRTAEIINYAAEEGLRMEGEVLEGGSFEAASKKKIAIVRREPVGLVLAISPFNYPVNLAGSKIAPALIAGNVVALKPPTQGSISGLLLAEAFAEAGIPAGVFNTITGRGSVIGDYIVEHEAVSFINFTGSTPIGEGIGKLAGMRPIMLELGGKDSAIVLEDADLALAAKNIVAGAFGYSGQRCTAVKRVLVMDKVADQLAAEIKTLVEKLSVGMPEDDADITPLIDTSAADFVEGLIKDATDKGATALTAFNREGNLISPVLFDHVTTDMRLAWEEPFGPVLPIIRVTTVEEAIKISNESEYGLQASIFTTNFPKAFGIAEQLEVGTVHLNNKTQRGTDNFPFLGAKKSGAGVQGVKYSIEAMTTVKSVVFDIQ,Km,[5],580 µM
